The values below come from patent US8846928B2 (Portola Pharmaceuticals, Inc., priority 2010, dated 2014).

Each structure is given as a SMILES string. pIC50: −log10 of the molar value.

For the test, the target named is T1, full length active recombinant SYK enzyme (Homo sapiens, UniProt P43405).
T1 construct: full length active recombinant SYK enzyme (Millipore, Calif.); purchased Millipore
Nature of the test: Inhibition of Syk tyrosine phosphorylation activity (LANCE TR-FRET kinase assay). It counts as biochemical.
Regarding `CC[C@H](CN)Nc1nc(Nc2ccc3ncsc3c2)c(C(N)=O)cc1F` [Example 93, (R)-6-(1-aminobutan-2-ylamino)-2-(benzo[d]thiazol-6-ylamino)-5-fluoronicotinamide], the negative-log IC50 (pIC50) (as a rule, the IC50 on a negative log10 scale, so that one unit is a factor of ten) is 8.00 to 9.00.

Turning to `CC[C@H](CN)Nc1nc(Nc2ccc3ncccc3c2)c(C(N)=O)cc1F` [Example 94, (R)-6-(1-aminobutan-2-ylamino)-5-fluoro-2-(quinolin-6-ylamino)nicotinamide], the negative-log IC50 (pIC50) was 8.00 to 9.00. Under `CC[C@H](CN)Nc1nc(Nc2cncc(C)c2)c(C(N)=O)cc1F` [Example 95, (R)-6-(1-aminobutan-2-ylamino)-5-fluoro-2-(5-methylpyridin-3-ylamino)nicotinamide] stands 7.00 to 8.00; under `CC[C@H](CN)Nc1nc(Nc2cncc(OC)c2)c(C(N)=O)cc1F` [Example 96, (R)-6-(1-aminobutan-2-ylamino)-5-fluoro-2-(5-methoxypyridin-3-ylamino)nicotinamide], 7.00 to 8.00; under `CC[C@@H](Nc1nc(Nc2ccc3cccnc3c2)c(C(N)=O)cc1F)C(N)=O` [Example 97, (R)-6-(1-amino-1-oxobutan-2-ylamino)-5-fluoro-2-(quinolin-7-ylamino)nicotinamide], 7.00 to 8.00. Turning to `CC[C@@H](Nc1nc(Nc2ccc3ccncc3c2)c(C(N)=O)cc1F)C(N)=O` [Example 98, (R)-6-(1-amino-1-oxobutan-2-ylamino)-5-fluoro-2-(isoquinolin-7-ylamino)nicotinamide], the pIC50 was 7.00 to 8.00. Under `CC[C@@H](Nc1nc(Nc2ccc3cnccc3c2)c(C(N)=O)cc1F)C(N)=O` [Example 99] stands 7.00 to 8.00; under `CC[C@@H](Nc1nc(Nc2ccc3ncccc3c2)c(C(N)=O)cc1F)C(N)=O` [Example 100], 7.00 to 8.00. Consider `Cc1cccc(Nc2nc(N[C@@H]3CCCC[C@@H]3N)ccc2C(N)=O)c1` [Example 102, 6-((1R,2S)-2-aminocyclohexylamino)-2-(m-tolylamino)nicotinamide], for which the pIC50 is 8.00 to 9.00. Turning to `COC[C@H](N)CNc1ccc(C(N)=O)c(Nc2cccc(C)c2)n1` [Example 103, (R)-2-(m-toluidino)-6-(2-amino-3-methoxypropylamino)nicotinamide], the negative-log IC50 (pIC50) is 6.00 to 7.00. Regarding `Cc1cccc(Nc2nc(N[C@H](C)C(N)=O)ccc2C(N)=O)c1` [Example 104, (R)-2-(m-toluidino)-6-(1-amino-1-oxopropan-2-ylamino)nicotinamide], the negative-log IC50 (pIC50) was 6.00 to 7.00. Next, `Cc1cccc(Nc2nc(N[C@H](CC(C)C)C(N)=O)ccc2C(N)=O)c1` [Example 105, (R)-6-(1-amino-4-methyl-1-oxopentan-2-ylamino)-2-(m-tolylamino)nicotinamide]: 6.00 to 7.00. Under `N#Cc1cc(C(N)=O)c(Nc2cccc(-n3nccn3)c2)nc1N[C@@H]1CCCC[C@@H]1N` [Example 106, 2-(3-(2H-1,2,3-triazol-2-yl)phenylamino)-6-((1R,2S)-2-aminocyclohexylamino)-5-cyanonicotinamide] stands 8.00 to 9.00; under `Cc1cccc(Nc2nc(N[C@@H]3CCCC[C@@H]3N)c(C#N)cc2C(N)=O)c1` [Example 107, 6-((1R,2S)-2-aminocyclohexylamino)-5-cyano 2-(m-tolylamino)nicotinamide], 8.00 to 9.00.

Take `C[C@H](N)CNc1nc(Nc2cccc(-n3nccn3)c2)c(C(N)=O)cc1C#N` [Example 108, (S)-2-(3-(2H-1,2,3-triazol-2-yl)phenylamino)-6-(2-aminopropylamino)-5-cyanonicotinamide]: the negative-log IC50 (pIC50) is 7.00 to 8.00. Regarding `C[C@H](CN)Nc1nc(Nc2cccc(-n3nccn3)c2)c(C(N)=O)cc1C#N` [Example 109, (R)-2-(3-(2H-1,2,3-triazol-2-yl)phenylamino)-6-(1-aminopropan-2-ylamino)-5-cyanonicotinamide], the negative-log IC50 (pIC50) is 7.00 to 8.00. Take `CC(C)C[C@H](CN)Nc1nc(Nc2cccc(-n3nccn3)c2)c(C(N)=O)cc1C#N` [Example 110, (R)-2-(3-(2H-1,2,3-triazol-2-yl)phenylamino)-6-(1-amino-4-methylpentan-2-ylamino)-5-cyanonicotinamide]: the pIC50 is 8.00 to 9.00.
